Broadly, the EC50 is the concentration giving half of the maximal effect. A high value points to weaker potency.

Some results are limits rather than exact numbers.

Experiment [1] relates to HMPV A2 TN/94-49. As to the kind of experiment: HMPV antiviral assay: LLC-MK2 cells, ATP-Lite readout. The class given is cell-based. Particulars: LLC-MK2, 168 h, MOI 0.005, 7 days incubation. Summed up: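 LLC-MK2 cells (5,000/well) were infected in suspension with HMPV A2 TN/94-49 at MOI 0.005 in serum-free OptiMEM with 2 μg/mL final TPCK-trypsin, then incubated for 7 days at 37 °C. Compounds were tested in duplicate from 2 μM in 10-point 2.5-fold dilutions. ATP-Lite luminescence, normalised to virus-only and cells-only controls as % cell health, gave EC50 by four-parameter fit.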

Experiment [2] relates to Human RSV-A (“Long” strain). As to the kind of experiment: RSV-A assay: CPE in Hep-2 cells, ATPlite readout. The class given is cell-based. The conditions noted are these: human respiratory syncytial virus, 120 h, MOI 0.1, 5-day incubation. An excerpt: Hep-2 cells, (originally derived from tumors grown in irradiated-cortisonised weanling rats that had been injected with epidermoid carcinoma tissue from a person's larynx, but later found to be indistinguishable from HeLa cells by PCR DNA analysis), were used for the culturing of genotype A, “Long” strain RSV. Flasks were inoculated with RSV and viral stocks were collected once cytopathic effect (CPE) was greater than 90%. Viral stocks in 25% sucrose media were snap frozen using liquid nitrogen to increase viral stability. Viral stock titers were quantified by tissue culture infectious dose 50% (TCID50) using 8,000 cells per well and 3-fold viral dilutions across a 96-well plate, cultured for 4 days. Viral stock titers were also quantified by a plaque forming unit assay, as described elsewhere.
Following extensive parameter testing, the final assay is run as follows: Hep-2 cells are seeded into the inner 60 wells of a 96-well plate at 8,000 cells per well in a volume of 50 μL using Growth Media (DMEM without phenol red, 1% L-Glut, 1% Penn/Strep, 1% nonessential amino acids, 10% heat-inactivated FBS). 2-fold serial dilutions of control and test compounds are added to the wells in duplicate in a total volume of 25 μL. Viral stock is then added to the wells at a multiplicity of infection (MOI) of 0.1 in a volume of 25 μL, bringing the total volume of each well to 100 μL. The MOI is calculated using the PFU/mL, or TCID50 if unavailable. Each 96-well plate has a control column of 6 wells with cells and virus but no compound (negative control, max CPE), a column with cells but no compound or virus (positive control, minimum CPE), and a column with no cells or virus or compound (background plate/reagent control). The control wells with cells but no virus are given an additional 25 μL of growth media containing an equal quantity of sucrose as those wells receiving the viral stock in order to keep consistent in media and volume conditions. The outer wells of the plate are filled with 125 μL of moat media (DMEM, 100 Penn/Strep) to act as a thermal and evaporative moat around the test wells. Following a 5-day incubation period, the plates are read using ATPlite (50 uL added per well), which quantifies the amount of ATP (a measure of cell health) present in each well. Assay plates are read using the Envision luminometer. […] EC50 ranges are as follows: A<0.01 μM; B 0.01-0.05 μM; C>0.05 μM.

For `CC(C)(O)c1cc([C@@](O)(CNC(=O)c2cc(F)c3nn(C(F)F)cc3c2)C2CC2)nc(-c2ccc(F)cc2)c1F` (single isomer, unassigned) [Example 7], the EC50 in experiment [1] was above 1 µM; in experiment [2] it was above 0.05 µM. The matching figures for `COc1cc(C(=O)NC[C@](O)(c2cc(C(C)(C)O)c(F)c(-c3ccc(F)cc3)n2)C2CC2)cc2cc(C3CC3)nn12` (single isomer, unassigned) [Example 8]: below 1 µM and below 0.01 µM. For `COc1cc(C(=O)NC[C@](O)(c2cc(C3(C(N)=O)CC3)c(F)c(-c3cc(Cl)c(F)cc3F)n2)C2CC2)cc2cn(C(F)F)nc12` (single isomer, unassigned) [Example 9] the same measures were above 1 µM and 0.01 to 0.05 µM. In the case of `NC(=O)C1(c2cc([C@@](O)(CNC(=O)c3cc(OC4CC4)c4nn(C5CC5)cc4c3)C3CC3)nc(-c3cc(Cl)c(F)cc3F)c2F)CC1` (single isomer, unassigned) [Example 14], the EC50 in experiment [2] was 0.01 to 0.05 µM. The same measure, in the same setting: as for `N#CC1(c2cc([C@@](O)(CNC(=O)c3cc(OC4CC4)c4nn(C5CC5)cc4c3)C3CC3)nc(-c3cc(Cl)c(F)cc3F)c2F)CC1` (single isomer, unassigned) [Example 15], the figure is 0.01 to 0.05 µM; as for `NC(=O)C1(c2cc([C@@](O)(CNC(=O)c3cc(OC4CC4)c4nn(C5(F)CC5)cc4c3)C3CC3)nc(-c3cc(Cl)c(F)cc3F)c2F)CC1` (single isomer, unassigned) [Example 16], 0.01 to 0.05 µM; as for `N#CC1(c2cc([C@@](O)(CNC(=O)c3cc(OC4CC4)c4nn(C5(F)CC5)cc4c3)C3CC3)nc(-c3cc(Cl)c(F)cc3F)c2F)CC1` (single isomer, unassigned) [Example 17], 0.01 to 0.05 µM. `NC(=O)C1(c2cc([C@@](O)(CNC(=O)c3cc(OC4CC4)c4nn(C(F)F)cc4c3)C3CC3)nc(-c3cc(Cl)c(F)cc3F)c2F)CC1` (single isomer, unassigned) [Example 18]: the EC50 is above 1 µM in experiment [1] and 0.01 to 0.05 µM in experiment [2]. As to `COc1cc(C(=O)NC[C@](O)(c2cc(C3(C(N)=O)CC3)c(F)c(-c3cc(Cl)c(F)cc3F)n2)C2CC2)cc2cc(Cl)c(C)nc12` (single isomer, unassigned) [Example 19], the EC50 is above 1 µM in experiment [1] and below 0.01 µM in experiment [2]. The matching figures for `COc1cc(C(=O)NC[C@](O)(c2cc(C3(C(N)=O)CC3)c(F)c(-c3ccc(F)c(Cl)c3F)n2)C2CC2)cc2cn(C3CC3)nc12` (single isomer, unassigned) [Example 20]: above 1 µM and 0.01 to 0.05 µM. As to `COc1cc(C(=O)NC[C@](O)(c2cc(C3(C(N)=O)CC3)c(F)c(-c3ccc(F)c(Cl)c3F)n2)C2CC2)cc2cn(C(F)F)nc12` (single isomer, unassigned) [Example 21], the concentration for a half-maximal effect (EC50) in experiment [1] is above 1 µM; in experiment [2], below 0.01 µM. Consider `COc1cc(C(=O)NC[C@](O)(c2cc(C3(C(N)=O)CC3)c(F)c(-c3ccc(F)c(Cl)c3F)n2)C2CC2)cc2cn(C3(F)CC3)nc12` (single isomer, unassigned) [Example 22], for which the EC50 in experiment [1] is above 1 µM; in experiment [2] it was below 0.01 µM. The matching figures for `COc1cc(C(=O)NC[C@](O)(c2cc(C3(C(N)=O)CC3)c(F)c(-c3ccc(F)c(Cl)c3F)n2)C2CC2)cc2cc(Cl)c(C)nc12` (single isomer, unassigned) [Example 23]: above 1 µM and 0.01 to 0.05 µM.

With `COc1cc(C(=O)NC[C@](O)(c2cc(C3(C(N)=O)CC3)cc(-c3cc(Cl)c(F)cc3F)n2)C2CC2)cc2cn(C3CC3)nc12` (single isomer, unassigned) [Example 24], the 50% effective concentration (EC50) is above 1 µM in experiment [1] and 0.01 to 0.05 µM in experiment [2]. The matching figures for `COc1cc(C(=O)NC[C@](O)(c2cc(C3(C(N)=O)CC3)cc(-c3cc(Cl)c(F)cc3F)n2)C2CC2)cc2cn(C(F)F)nc12` (single isomer, unassigned) [Example 25]: above 1 µM and 0.01 to 0.05 µM.

Turning to `COc1cc(C(=O)NC[C@](O)(c2cc(C3(C(N)=O)CC3)cc(-c3ccc(F)c(Cl)c3F)n2)C2CC2)cc2cn(C3CC3)nc12` (single isomer, unassigned) [Example 26], the concentration for a half-maximal effect (EC50) in experiment [1] is above 1 µM; in experiment [2] it was below 0.01 µM. In experiment [2], `COc1cc(C(=O)NC[C@](O)(c2cc(C3(C(N)=O)CC3)cc(-c3ccc(F)c(Cl)c3F)n2)C2CC2)cc2cn(C(F)F)nc12` (single isomer, unassigned) [Example 27] registered a concentration for a half-maximal effect (EC50) below 0.01 µM. Molecule `COc1cc(C(=O)NC[C@](O)(c2cc(C(F)(F)C(N)=O)c(F)c(-c3ccc(F)c(Cl)c3F)n2)C2CC2)cc2cn(C3CC3)nc12` (single isomer, unassigned) [Example 32] had a half-maximal effective concentration (EC50) in experiment [2] of 0.01 to 0.05 µM. `COc1cc(C(=O)NC[C@](O)(c2cc(C(F)(F)C(N)=O)c(F)c(-c3ccc(F)c(Cl)c3F)n2)C2CC2)cc2cn(C3(F)CC3)nc12` (single isomer, unassigned) [Example 33] registered an EC50 in experiment [2] below 0.01 µM. The same measure, in the same setting: as for `COc1cc(C(=O)NC[C@](O)(c2cc(C(F)(F)C(N)=O)c(F)c(-c3ccc(F)c(Cl)c3F)n2)C2CC2)cc2cn(C(F)F)nc12` (single isomer, unassigned) [Example 34], the figure is 0.01 to 0.05 µM; as for `COc1cc(C(=O)NC[C@](O)(c2cc(C(F)(F)C(N)=O)c(F)c(-c3ccc(F)c(Cl)c3F)n2)C2CC2)cc2cc(Cl)c(C)nc12` (single isomer, unassigned) [Example 35], above 0.05 µM; as for `NC(=O)C(F)(F)c1cc([C@@](O)(CNC(=O)c2cc(OC3CC3)c3nn(C4CC4)cc3c2)C2CC2)nc(-c2ccc(F)c(Cl)c2F)c1F` (single isomer, unassigned) [Example 36], 0.01 to 0.05 µM.

`COc1cc(C(=O)NC[C@](O)(c2cc(C(F)(F)C(N)=O)c(F)c(-c3ccc(F)c(Cl)c3F)n2)C2CC2)ccc1OC[C@@H](C)O` (single isomer, unassigned) [Example 37] gave an EC50 in experiment [2] above 0.05 µM. In turn, `COc1cc(C(=O)NC[C@](O)(c2cc(C(F)(F)C(N)=O)c(F)c(-c3cc(Cl)c(F)cc3F)n2)C2CC2)cc2cn(C3(F)CC3)nc12` (single isomer, unassigned) [Example 39] came in with an EC50 in experiment [2] below 0.01 µM. The same measure, in the same setting: as for `COc1cc(C(=O)NC[C@](O)(c2cc(C(F)(F)C(N)=O)c(F)c(-c3cc(Cl)c(F)cc3F)n2)C2CC2)cc2cn(C(F)F)nc12` (single isomer, unassigned) [Example 41], the figure is 0.01 to 0.05 µM; as for `COc1cc(C(=O)NC[C@](O)(c2cc(C(F)(F)C(N)=O)c(F)c(-c3cc(Cl)c(F)cc3F)n2)C2CC2)cc2cc(Cl)c(C)nc12` (single isomer, unassigned) [Example 42], above 0.05 µM; as for `COc1cc(C(=O)NC[C@](O)(c2cc(C(C)(C)C(N)=O)c(F)c(-c3ccc(F)cc3)n2)C2CC2)cc2cn(C3CC3)nc12` (single isomer, unassigned) [Example 43], below 0.01 µM. The same measure, in the same setting: under `Cc1nc2c(OC3CC3)cc(C(=O)NC[C@](O)(c3cc(C(C)(C)C(N)=O)c(F)c(-c4ccc(F)cc4)n3)C3CC3)cc2cc1Cl` (single isomer, unassigned) [Example 44] stands below 0.01 µM. Consider `Cc1nc2c(OC(F)F)cc(C(=O)NC[C@](O)(c3cc(C(C)(C)C(N)=O)c(F)c(-c4ccc(F)cc4)n3)C3CC3)cc2cc1Br` (single isomer, unassigned) [Example 45], for which the EC50 in experiment [2] is 0.01 to 0.05 µM. Same read-out and setting: as for `Cc1nc2c(OC(F)F)cc(C(=O)NC[C@](O)(c3cc(C(O)(C(F)(F)F)C(F)(F)F)c(F)c(-c4ccc(F)cc4)n3)C3CC3)cc2cc1Br` (single isomer, unassigned) [Example 46], the figure is 0.01 to 0.05 µM. Take `COc1cc(C(=O)NC[C@](O)(c2cc(C(O)(C(F)(F)F)C(F)(F)F)c(F)c(-c3ccc(F)cc3)n2)C2CC2)cc2cn(C3CC3)nc12` (single isomer, unassigned) [Example 47]: the concentration for a half-maximal effect (EC50) in experiment [1] was above 1 µM; in experiment [2], 0.01 to 0.05 µM. On to `Cc1nc2c(OC3CC3)cc(C(=O)NC[C@](O)(c3cc(C(O)(C(F)(F)F)C(F)(F)F)c(F)c(-c4ccc(F)cc4)n3)C3CC3)cc2cc1Cl` (single isomer, unassigned) [Example 48], for which the 50% effective concentration (EC50) in experiment [1] was above 1 µM; in experiment [2], above 0.05 µM. `COc1cc(C(=O)NC[C@](O)(c2cc(C(F)(F)C#N)c(F)c(-c3cc(Cl)c(F)cc3F)n2)C2CC2)cc2cn(C3(F)CC3)nc12` [Example 40] returned an EC50 in experiment [2] of 0.01 to 0.05 µM.

(Values after US12162857B2, “Antiviral compounds” (priority 2022, dated 2024).)
